This is an account of results in ChEMBL document CHEMBL4732247, “Discovery of A031 as effective proteolysis targeting chimera (PROTAC) androgen receptor (AR) degrader for the treatment of prostate cancer” (Eur J Med Chem, 2021).

Active and inactive are the calls of the source. No cut-off for these calls is given here.

Data set [1] has as its system VCaP. Kind of data set: Cytotoxicity against human VCaP cells assessed as growth inhibition at 4 uM after 4 days by CCK8 assay relative to control. Type of data set: functional. The settings on record: 96 h, time 4 day, read-out: GI.
Data set [2] deals with VCaP. Nature of the data set: Cytotoxicity against human VCaP cells assessed as growth inhibition at 0.032 uM after 4 days by CCK8 assay relative to control. The settings on record: 96 h, time 4 day, read-out: GI. Type of data set: functional.
Data set [3] deals with VCaP. Nature of the data set: Cytotoxicity against human VCaP cells assessed as growth inhibition at 0.8 uM after 4 days by CCK8 assay relative to control. The format is functional. The settings on record: 96 h, time 4 day, read-out: GI.
The test system of data set [4] is VCaP. Kind of data set: Cytotoxicity against human VCaP cells assessed as growth inhibition after 4 days by CCK8 assay. The format is functional, cell-based. The settings on record: dose 0.032-4 µM, time 4.0 day.
Data set [5] relates to VCaP. Kind of data set: Cytotoxicity against human VCaP cells assessed as growth inhibition at 0.16 uM after 4 days by CCK8 assay relative to control. Type of data set: functional. The settings on record: 96 h, time 4 day, read-out: GI.
The subject of data set [6] is VCaP. Nature of the data set: Antitumour activity against human VcaP cells xenografted in AB zebra fish assessed as tumour growth inhibition at 5 uM after 5 days by CM-D11 dye based fluorescence microscopic method. The settings on record: 120 h, read-out: TGI.
Data set [7] can be described thus: Toxicity in AB zebra fish assessed as rolled over at 5 uM after 5 days relative to control. Details: species or system Danio rerio. The settings on record: zebrafish, 120 h, time 5 day.
Data set [8] is described as follows: Toxicity in AB zebra fish assessed as mortality rate at 5 uM after 5 days relative to control. The arrangement: species or system Danio rerio. The settings on record: zebrafish, time 5 day.
Data set [9] is described as follows: Toxicity in AB zebra fish assessed as mortality rate at 10 to 200 uM after 5 days relative to control. The arrangement: species or system Danio rerio. The settings on record: zebrafish, dose 10-200 µM, time 5 day.
The target of data set [10] is T1, von Hippel-Lindau disease tumor suppressor/Androgen receptor (Homo sapiens) (UniProt P10275+P40337). Kind of data set: Protac activity at VHL3/AR in human VCAP cells assessed as induction of AR degradation at 2 uM after 2 hrs by western blot analysis relative to control. The format is cell-based.
T1 sequence (P10275 whole entry, looked up): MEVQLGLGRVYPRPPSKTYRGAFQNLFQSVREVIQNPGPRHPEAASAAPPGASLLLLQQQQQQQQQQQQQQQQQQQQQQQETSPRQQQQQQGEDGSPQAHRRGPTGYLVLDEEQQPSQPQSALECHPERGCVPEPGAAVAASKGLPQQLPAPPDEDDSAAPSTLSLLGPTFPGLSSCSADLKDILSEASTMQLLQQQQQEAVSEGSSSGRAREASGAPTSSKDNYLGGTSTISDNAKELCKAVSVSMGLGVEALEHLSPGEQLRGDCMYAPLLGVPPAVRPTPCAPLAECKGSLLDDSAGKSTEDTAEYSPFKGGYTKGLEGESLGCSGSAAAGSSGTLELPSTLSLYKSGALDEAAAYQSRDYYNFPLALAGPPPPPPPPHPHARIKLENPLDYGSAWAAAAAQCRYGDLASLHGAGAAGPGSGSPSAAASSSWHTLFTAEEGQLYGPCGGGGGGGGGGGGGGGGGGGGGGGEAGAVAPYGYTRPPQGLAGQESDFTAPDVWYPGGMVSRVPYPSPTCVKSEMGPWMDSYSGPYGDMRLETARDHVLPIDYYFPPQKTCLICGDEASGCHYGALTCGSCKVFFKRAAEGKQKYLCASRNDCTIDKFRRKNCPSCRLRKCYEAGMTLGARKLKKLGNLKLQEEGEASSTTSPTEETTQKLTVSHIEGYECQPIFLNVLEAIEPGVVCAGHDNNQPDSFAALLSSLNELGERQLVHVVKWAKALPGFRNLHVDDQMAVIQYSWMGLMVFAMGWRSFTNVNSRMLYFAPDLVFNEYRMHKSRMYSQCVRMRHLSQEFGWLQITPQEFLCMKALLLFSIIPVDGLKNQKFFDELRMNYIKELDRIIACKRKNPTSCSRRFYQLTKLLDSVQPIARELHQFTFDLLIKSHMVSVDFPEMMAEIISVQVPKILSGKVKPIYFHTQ
T1 sequence (P40337 whole entry, looked up): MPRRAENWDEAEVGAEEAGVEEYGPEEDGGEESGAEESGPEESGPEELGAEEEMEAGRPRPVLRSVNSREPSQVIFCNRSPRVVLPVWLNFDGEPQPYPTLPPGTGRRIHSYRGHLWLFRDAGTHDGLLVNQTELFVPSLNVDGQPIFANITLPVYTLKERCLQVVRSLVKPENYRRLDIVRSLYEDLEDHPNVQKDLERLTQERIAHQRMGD
Data set [11] can be described thus: Toxicity in AB zebra fish assessed as toxic phenotype at 6.25 to 25 uM after 5 days relative to control. The arrangement: species or system Danio rerio. The settings on record: zebrafish, 120 h, dose 6.25-25 µM, time 5 day.
Data set [12] is described as follows: Toxicity in AB zebra fish assessed as obvious precipitation at 50 to 100 uM after 5 days. The settings on record: zebrafish, 120 h, dose 50-100 µM, time 5 day. Details: species or system Danio rerio.
In data set [13] the test system is VCaP. Kind of data set: Antitumour activity against human VcaP cells xenografted in AB zebra fish assessed as tumour growth inhibition at 25 uM after 5 days by […] dye based fluorescence microscopic method. Type of data set: functional. The settings on record: 120 h, time 5 day, read-out: TGI.
Data set [14] concerns VCaP. Kind of data set: Antitumour activity against human VcaP cells xenografted in AB zebra fish assessed as tumour growth inhibition at 8.3 uM after 5 days by […] dye based fluorescence microscopic method. Type of data set: functional. The settings on record: 120 h, time 5 day, read-out: TGI.
The target in data set [15] is T1, von Hippel-Lindau disease tumor suppressor/Androgen receptor (Homo sapiens). Nature of the data set: Protac activity at VHL3/AR in human VCAP cells assessed as induction of AR degradation at 2 uM after 2 hrs in presence of proteasome inhibitor MG132 by western blot analysis relative to control. The format is cell-based.
The subject of data set [16] is VCaP. Kind of data set: Cytotoxicity against human VCaP cells assessed as growth inhibition at 1 uM after 4 days by CCK8 assay relative to control. The format is functional. The settings on record: 96 h, time 4 day, read-out: GI.
In data set [17] the test system is VCaP. Kind of data set: Cytotoxicity against human VCaP cells assessed as growth inhibition at 0.25 uM after 4 days by CCK8 assay relative to control. Type of data set: functional. The settings on record: 96 h, time 4 day, read-out: GI.
A short description of data set [18]: Toxicity in AB zebra fish assessed as mortality rate at 6.25 to 25 uM after 5 days relative to control. Details: species or system Danio rerio. The settings on record: zebrafish, dose 6.25-25 µM, time 5 day.
Data set [19] can be described thus: AUC in Sprague-Dawley rat […] at 1 mg/kg, iv measured up to 8 hrs by HPLC-MS analysis. The format is ADME, organism-based. The arrangement: route intravenous, dose 1 mg/kg, time <=8. The settings on record: in vivo.
The nature of data set [20]: Toxicity in AB zebra fish assessed as maximum non-toxic concentration after 5 days. The settings on record: zebrafish, time 5 day, read-out: MTC. The arrangement: species or system Danio rerio.
A short description of data set [21]: Half life in Sprague-Dawley rat […] at 1 mg/kg, iv measured up to 8 hrs by HPLC-MS analysis. Type of data set: ADME, organism-based. The settings on record: in vivo.
The target in data set [22] is T1, von Hippel-Lindau disease tumor suppressor/Androgen receptor (Homo sapiens). Kind of data set: Protac activity at VHL3/AR in human VCAP cells assessed as induction of AR degradation at 2 uM after 4.5 hrs by western blot analysis relative to control. Type of data set: cell-based.
Data set [23] deals with VCaP. Kind of data set: Cytotoxicity against human VCaP cells assessed as growth inhibition at 0.125 uM after 4 days by CCK8 assay relative to control. Type of data set: functional. The settings on record: 96 h, time 4 day, read-out: GI.
Data set [24] deals with T1, von Hippel-Lindau disease tumor suppressor/Androgen receptor (Homo sapiens). Kind of data set: Protac activity at VHL3//AR in human VCAP cells assessed as induction of AR degradation at 2 uM after 2 hrs in presence of E1 inhibitor MLN4924 by western blot analysis relative to control. Type of data set: cell-based.
Data set [25] concerns VCaP. Nature of the data set: Antitumour activity against human VcaP cells xenografted in AB zebra fish assessed as tumour growth inhibition at 2.8 uM after 5 days by […] dye based fluorescence microscopic method. The settings on record: 120 h, time 5 day, read-out: TGI. Type of data set: functional.
Data set [26] addresses T1, von Hippel-Lindau disease tumor suppressor/Androgen receptor (Homo sapiens). Kind of data set: Protac activity at VHL3/AR in human VCAP cells assessed as induction of AR degradation at 2 uM after 2 hrs in presence of VHL-3 by western blot analysis. The format is cell-based.
Data set [27] can be described thus: Cmax in Sprague-Dawley rat […] at 1 mg/kg, iv measured up to 8 hrs by HPLC-MS analysis. Type of data set: ADME, organism-based. The arrangement: route intravenous, dose 1 mg/kg, time <=8. The settings on record: in vivo.
For data set [28], the system named is VCaP. Kind of data set: Cytotoxicity against human VCaP cells assessed as growth inhibition at 0.5 uM after 4 days by CCK8 assay relative to control. The format is functional. The settings on record: 96 h, time 4 day, read-out: GI.
The target of data set [29] is T1, von Hippel-Lindau disease tumor suppressor/Androgen receptor (Homo sapiens). Kind of data set: Protac activity at VHL3/AR in human VCAP cells assessed as induction of AR degradation at 2 uM by western blot analysis. The format is cell-based. The settings on record: time 2-4.5 hrs, TDE = time-dependent effect.

As to `N#Cc1ccc(O[C@H]2C[C@H]3CC[C@@H](C2)N3C(=O)c2ccc(N3CCN(CCCCCCCCNc4cccc5c4C(=O)N(C4CCC(=O)NC4=O)C5=O)CC3)cc2)cc1Cl` (stereo partly specified), in the data set with VCaP [1], the inhibition of growth at 4 µM was found to be 51.2%. For the same compound, the inhibition of growth at 0.032 µM in the data set with VCaP [2] turned out to be 0.07%. In addition, in the data set with VCaP [3], the inhibition of growth at 0.8 µM was determined as 41.5%. Moreover, the “growth inhibition (GI)” value in the data set on VCaP [4] is “Dose-dependent effect”. Further, in the data set on VCaP [5], the inhibition of growth at 0.16 µM was found to be 22.9%.

Turning to `CNC(=O)c1ccc(N2C(=S)N(c3ccc(C#N)c(C(F)(F)F)c3)C(=O)C2(C)C)cc1F` [ENZALUTAMIDE], in the data set with VCaP [6], the inhibition in vivo at 5 µM turned out to be 49%. Further, the Activity in data set [7] is 10%. For the same compound, the mortality at 120 h, 5 µM in data set [8] was determined as 0%. Besides, the mortality at 120 h, up to 200 µM in [9] amounted to 100%.

As to `N#Cc1ccc(O[C@H]2C[C@H]3CC[C@@H](C2)N3C(=O)c2ccc(N3CCN(CCCCCCCCCOc4cccc5c4C(=O)N(C4CCC(=O)NC4=O)C5=O)CC3)cc2)cc1Cl` (stereo partly specified), the inhibition of growth at 4 µM in the data set on VCaP [1] was determined as 30.6%. The inhibition of growth at 0.8 µM with VCaP [3] was determined as 21.9%. In the data set with VCaP [4], the “growth inhibition (GI)” value is “Dose-dependent effect”.

Take `N#Cc1ccc(O[C@H]2C[C@H]3CC[C@@H](C2)N3C(=O)c2ccc(N3CCN(CCCCCCCCCNc4cccc5c4C(=O)N(C4CCC(=O)NC4=O)C5=O)CC3)cc2)cc1Cl` (stereo partly specified): the inhibition of growth at 4 µM with VCaP [1] is 42.1%. In addition, the inhibition of growth at 0.032 µM with VCaP [2] is 15.4%. For the same compound, the inhibition of growth at 0.8 µM in the data set with VCaP [3] stood at 42.5%. For the same compound, the “growth inhibition (GI)” value in the data set on VCaP [4] is “Dose-dependent effect”. The inhibition of growth at 0.16 µM in the data set with VCaP [5] was found to be 27.7%.

With `Cc1ncsc1-c1ccc([C@H](C)NC(=O)[C@@H]2C[C@@H](O)CN2C(=O)[C@@H](NC(=O)COCCN2CCN(c3ncc(C(=O)N4[C@@H]5CC[C@H]4C[C@@H](Oc4ccc(C#N)c(Cl)c4)C5)cn3)CC2)C(C)(C)C)cc1`, the result in data set [10], in [22] and in data set [26] was Active. For the same compound, the Activity entry in data set [11] was “Non-Toxic”; in [12], “Toxic”; in data set [29] it was “Tde”. Moreover, the inhibition in vivo at 25 µM in the data set with VCaP [13] was 61%. The inhibition in vivo at 8.3 µM in the data set with VCaP [14] amounted to 44%. Also, the outcome in data set [15] and in data set [24] was inactive. Further, the inhibition of growth at 1 µM in the data set with VCaP [16] worked out at 69.6%. Besides, the inhibition of growth at 0.25 µM in the data set on VCaP [17] was found to be 56.4%. For the same compound, the mortality at 120 h in [18] was determined as 0%. Further, the AUC at 8 h in [19] stood at 1770 ng·h/mL. Besides, in [20], the MNTC at 120 h stood at 25 µM. The same compound gave a half-life in data set [21] of 34.2 min. In addition, the inhibition of growth at 0.125 µM in the data set with VCaP [23] is 40.3%. In addition, the inhibition in vivo at 2.8 µM in the data set on VCaP [25] stood at 28%. In data set [27], this compound yielded a Cmax of 14400 ng/mL. Further, the inhibition of growth at 0.5 µM in the data set with VCaP [28] was 66.1%.

As to `N#Cc1ccc(O[C@H]2C[C@H]3CC[C@@H](C2)N3C(=O)c2ccc(N3CCN(CCCCCCCNc4cccc5c4C(=O)N(C4CCC(=O)NC4=O)C5=O)CC3)cc2)cc1Cl` (stereo partly specified), the inhibition of growth at 4 µM with VCaP [1] turned out to be 47.2%. Besides, the inhibition of growth at 0.8 µM with VCaP [3] is 42.4%. Also, the “growth inhibition (GI)” value in the data set with VCaP [4] is “Dose-dependent effect”. In the data set with VCaP [5], the inhibition of growth at 0.16 µM is 15.7%.

`N#Cc1ccc(O[C@H]2C[C@H]3CC[C@@H](C2)N3C(=O)c2cnc(N3CCN(CCCCCNc4cccc5c4C(=O)N(C4CCC(=O)NC4=O)C5=O)CC3)nc2)cc1Cl` (stereo partly specified): in the data set with VCaP [4], the “growth inhibition (GI)” value was “Dose-dependent effect”. Moreover, the inhibition of growth at 1 µM in the data set with VCaP [16] came to 36.9%. Further, in the data set on VCaP [17], the inhibition of growth at 0.25 µM was 24.6%. Moreover, the inhibition of growth at 0.125 µM in the data set on VCaP [23] was 20%. In the data set with VCaP [28], the inhibition of growth at 0.5 µM was 30.1%.

`N#Cc1ccc(O[C@H]2C[C@H]3CC[C@@H](C2)N3C(=O)c2cnc(N3CCN(CCCCNc4cccc5c4C(=O)N(C4CCC(=O)NC4=O)C5=O)CC3)nc2)cc1Cl` (stereo partly specified): the “growth inhibition (GI)” value in the data set with VCaP [4] is “Dose-dependent effect”. Besides, the inhibition of growth at 1 µM in the data set on VCaP [16] was found to be 50.4%. Besides, in the data set on VCaP [17], the inhibition of growth at 0.25 µM is 29%. Besides, the inhibition of growth at 0.125 µM with VCaP [23] stood at 19%. Moreover, the inhibition of growth at 0.5 µM in the data set on VCaP [28] came out at 44.4%.
